Reference: PubChem BioAssay AID256 (DTP/NCI, 2004)
Several values for one entry are separate records, joined by “and”; a condition that tells them apart may be missing. Identical values can stand only once. Inconclusive results and toxic doses are left out. Rule for the calls: active = survival T/C of 150% or more; inactive = T/C below 125% in these data.

System: CD2F1 mice, L1210 leukemia ip, survival T/C
Assay: NCI In Vivo Anticancer Drug Screen. Data for tumor model L1210 Leukemia (intraperitoneal) in CD2F1 (CDF1) mice
Conditions: higher = longer survival
Procedure, shortened: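 Tumor-bearing mice (transplanted tumor) were split into treated and vehicle control groups, and the measured endpoint of each treated group was divided by that of its vehicle controls.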

[1] = endpoint: mean survival time, dose: 50.0 mg/kg/injection, schedule: Q01DX009 (ip), vehicle: saline with Tween-80
[2] = endpoint: mean survival time, dose: 100.0 mg/kg/injection, schedule: Q01DX009 (ip), vehicle: saline with Tween-80
[3] = endpoint: mean survival time, dose: 200.0 mg/kg/injection, schedule: Q01DX009 (ip), vehicle: saline with Tween-80
[4] = endpoint: mean survival time, dose: 100.0 mg/kg/injection, schedule: Q04DX003 (ip), vehicle: saline with Tween-80
[5] = endpoint: mean survival time, dose: 200.0 mg/kg/injection, schedule: Q04DX003 (ip), vehicle: saline with Tween-80
[6] = endpoint: mean survival time, dose: 400.0 mg/kg/injection, schedule: Q04DX003 (ip), vehicle: saline with Tween-80
[7] = endpoint: mean survival time, dose: 100.0 mg/kg/injection, schedule: Q04DX003 (ip), vehicle: saline
[8] = endpoint: mean survival time, dose: 200.0 mg/kg/injection, schedule: Q04DX003 (ip), vehicle: saline
[9] = endpoint: mean survival time, dose: 400.0 mg/kg/injection, schedule: Q04DX003 (ip), vehicle: saline
[10] = endpoint: mean survival time, dose: 100.0 mg/kg/injection, schedule: Q01DX001 (ip), vehicle: saline with Tween-80
[11] = endpoint: mean survival time, dose: 200.0 mg/kg/injection, schedule: Q01DX001 (ip), vehicle: saline with Tween-80
[12] = endpoint: mean survival time, dose: 400.0 mg/kg/injection, schedule: Q01DX001 (ip), vehicle: saline with Tween-80
[13] = endpoint: mean survival time, dose: 400.0 mg/kg/injection, schedule: Q01DX009 (ip), vehicle: saline with Tween-80
[14] = endpoint: mean survival time, dose: 100.0 mg/kg/injection, schedule: Q01DX009 (ip), vehicle: saline
[15] = endpoint: mean survival time, dose: 200.0 mg/kg/injection, schedule: Q01DX009 (ip), vehicle: saline

Measured: T/C

O=c1[nH]cnc2[nH]ncc12
inactive: endpoint: mean survival time, dose: 8.4 mg/kg/injection, schedule: Q04DX003 (ip), vehicle: saline with Tween-80 99 % of control | endpoint: mean survival time, dose: 14.0 mg/kg/injection, schedule: Q04DX003 (ip), vehicle: saline with Tween-80 103 % of control | endpoint: mean survival time, dose: 23.4 mg/kg/injection, schedule: Q04DX003 (ip), vehicle: saline with Tween-80 96 % of control | endpoint: mean survival time, dose: 39.0 mg/kg/injection, schedule: Q04DX003 (ip), vehicle: saline with Tween-80 101 % of control and 111 % of control | [1] 104 % of control | endpoint: mean survival time, dose: 60.0 mg/kg/injection, schedule: Q01DX006 (ip), vehicle: saline with Tween-80 97 % of control | endpoint: mean survival time, dose: 65.0 mg/kg/injection, schedule: Q04DX003 (ip), vehicle: saline with Tween-80 99 % of control and 104 % of control | [2] 106 % of control | endpoint: mean survival time, dose: 108.0 mg/kg/injection, schedule: Q04DX003 (ip), vehicle: saline with Tween-80 108 % of control and 111 % of control | endpoint: mean survival time, dose: 120.0 mg/kg/injection, schedule: Q01DX006 (ip), vehicle: saline with Tween-80 107 % of control | endpoint: mean survival time, dose: 180.0 mg/kg/injection, schedule: Q04DX003 (ip), vehicle: saline with Tween-80 106 % of control and 109 % of control | [3] 107 % of control | endpoint: mean survival time, dose: 300.0 mg/kg/injection, schedule: Q04DX003 (ip), vehicle: saline with Tween-80 104 % of control | endpoint: mean survival time, dose: 500.0 mg/kg/injection, schedule: Q04DX003 (ip), vehicle: saline with Tween-80 104 % of control | endpoint: mean survival time, dose: 833.0 mg/kg/injection, schedule: Q04DX003 (ip), vehicle: saline with Tween-80 97 % of control | endpoint: median survival time, dose: 12.5 mg/kg/injection, schedule: Q01DX009 (ip), vehicle: suspension in saline 101 % of control | endpoint: median survival time, dose: 25.0 mg/kg/injection, schedule: Q01DX009 (ip), vehicle: suspension in saline 103 % of control | endpoint: median survival time, dose: 50.0 mg/kg/injection, schedule: Q01DX009 (ip), vehicle: suspension in saline 100 % of control | endpoint: median survival time, dose: 100.0 mg/kg/injection, schedule: Q01DX009 (ip), vehicle: suspension in saline 101 % of control | endpoint: median survival time, dose: 200.0 mg/kg/injection, schedule: Q01DX009 (ip), vehicle: suspension in saline 107 % of control

O=C(Nc1ccccc1)OCCCl
inactive: [4] 100 % of control | [5] 97 % of control | [6] 100 % of control

O=N/C=C/C(=N/Nc1ccc(C(=O)O)cc1)[N+](=O)[O-]
inactive: [7] 96 % of control | [8] 96 % of control | [9] 90 % of control

CCOC(=O)CN(C=O)C1c2ccccc2-c2ccccc21
inactive: [4] 99 % of control | [5] 92 % of control | [6] 97 % of control

Clc1cc(Cl)c(OCC#CI)cc1Cl
inactive: endpoint: mean survival time, dose: 50.0 mg/kg/injection, schedule: Q01DX001 (ip), vehicle: carboxymethylcellulose (CMC) 91 % of control | endpoint: mean survival time, dose: 100.0 mg/kg/injection, schedule: Q01DX001 (ip), vehicle: carboxymethylcellulose (CMC) 102 % of control | endpoint: mean survival time, dose: 200.0 mg/kg/injection, schedule: Q01DX001 (ip), vehicle: carboxymethylcellulose (CMC) 91 % of control | endpoint: mean survival time, dose: 400.0 mg/kg/injection, schedule: Q01DX001 (ip), vehicle: carboxymethylcellulose (CMC) 89 % of control

O=[N+]([O-])C1=C(c2ccccc2)SC=C(c2ccccc2)S1
inactive: [10] 87 % of control | [11] 97 % of control | [12] 105 % of control

O=C(Cl)c1ccc([N+](=O)[O-])cc1
inactive: [1] 96 % of control | [2] 101 % of control | [3] 104 % of control

CCCCCCCCCCCc1n(Cc2ccccc2)c2ccccc2[n+]1C
inactive: endpoint: mean survival time, dose: 0.25 mg/kg/injection, schedule: Q01DX009 (ip), vehicle: saline 117 % of control | endpoint: mean survival time, dose: 0.25 mg/kg/injection, schedule: Q04DX003 (ip), vehicle: saline 102 % of control | endpoint: mean survival time, dose: 0.5 mg/kg/injection, schedule: Q01DX009 (ip), vehicle: saline 110 % of control | endpoint: mean survival time, dose: 0.5 mg/kg/injection, schedule: Q04DX003 (ip), vehicle: saline 104 % of control | endpoint: mean survival time, dose: 1.0 mg/kg/injection, schedule: Q01DX009 (ip), vehicle: saline 121 % of control | endpoint: mean survival time, dose: 1.0 mg/kg/injection, schedule: Q04DX003 (ip), vehicle: saline 106 % of control

Oc1ccc(NC(=S)Nc2ccccc2)cc1
inactive: endpoint: mean survival time, dose: 100.0 mg/kg/injection, schedule: Q01DX001 (ip), vehicle: saline 98 % of control | endpoint: mean survival time, dose: 200.0 mg/kg/injection, schedule: Q01DX001 (ip), vehicle: saline 98 % of control | endpoint: mean survival time, dose: 400.0 mg/kg/injection, schedule: Q01DX001 (ip), vehicle: saline 96 % of control

N/C(=C\C(=O)c1ccccc1)c1ccccc1
inactive: [4] 94 % of control | [5] 107 % of control | [6] 100 % of control

C[Si](C)(C)Oc1cccc(O[Si](C)(C)C)c1
inactive: [2] 92 % of control | [3] 94 % of control | [13] 87 % of control

COc1ccc(OC)c(NC(=O)C2CC2)c1
inactive: [2] 97 % of control | [3] 102 % of control | [13] 98 % of control

NC(=O)SCC(N)C(=O)O (configuration not stated)
inactive: endpoint: mean survival time, dose: 50.0 mg/kg/injection, schedule: Q01DX009 (ip), vehicle: saline 101 % of control | [14] 101 % of control | [15] 109 % of control | endpoint: mean survival time, dose: 300.0 mg/kg/injection, schedule: Q01DX009 (ip), vehicle: saline 107 % of control

O=C(O)c1c(Cl)c(Cl)c(Cl)c(Cl)c1Cl
inactive: [4] 98 % of control | [5] 98 % of control | [6] 98 % of control

O=CNNC(=S)Nc1ccccc1
inactive: [1] 100 % of control | [2] 96 % of control | [3] 96 % of control

OC(c1nc2ccccc2[nH]1)C(O)c1nc2ccccc2[nH]1 (configuration not stated)
inactive: [4] 101 % of control | [5] 102 % of control | [6] 96 % of control

COc1cc(-c2ccc(N)c(OC)c2)ccc1N
inactive: [10] 100 % of control | [14] 96 % of control and 100 % of control | endpoint: mean survival time, dose: 100.0 mg/kg/injection, schedule: Q04DX002 (ip), vehicle: saline with Tween-80 102 % of control | [7] 97 % of control | [11] 96 % of control | [15] 100 % of control and 102 % of control | endpoint: mean survival time, dose: 200.0 mg/kg/injection, schedule: Q04DX002 (ip), vehicle: saline with Tween-80 100 % of control | [8] 94 % of control | [12] 103 % of control | endpoint: mean survival time, dose: 400.0 mg/kg/injection, schedule: Q04DX002 (ip), vehicle: saline with Tween-80 100 % of control | [9] 103 % of control

CC1=NN(c2ccc([N+](=O)[O-])cc2)C(=O)C1[N+](=O)[O-] (configuration not stated) (tested in a mixture with another compound)
inactive: endpoint: mean survival time, dose: 75.0 mg/kg/injection, schedule: Q01DX001 (ip), vehicle: other 92 % of control | [10] 91 % of control | endpoint: mean survival time, dose: 150.0 mg/kg/injection, schedule: Q01DX001 (ip), vehicle: other 104 % of control | [11] 97 % of control

CC1(C)OC2C(COC(=O)CI)OC(n3ccc(=O)[nH]c3=O)C2O1 (configuration not stated)
inactive: endpoint: median survival time, dose: 25.0 mg/kg/injection, schedule: Q01DX005 (ip), vehicle: Klucel (hydroxypropylcellulose) (HPC) 102 % of control | endpoint: median survival time, dose: 50.0 mg/kg/injection, schedule: Q01DX005 (ip), vehicle: Klucel (hydroxypropylcellulose) (HPC) 98 % of control
